According to patent US12059400B2, “Medical compound” (VERA SALUS RICERCA S.R.L., priority 2017, dated 2024):
Entries after “also recorded” stand apart in the source; their conditions may differ.

What was measured:
[1] = tested on: human colon carcinoma cells (HCT116); assay: Intracellular ROS levels, DCFH2-DA probe; format: cell-based; conditions: for intracellular ROS levels in HCT116 cells: 2 hrs of treatment, at the respective anti-proliferative IC50s, DCF fluorescence in A.U., FIG. 22 left
Experimental: Intracellular ROS levels were measured in tumour cells by using the probe 2,7-dichlorodihydrofluorescein diacetate (DCFH2-DA) and a fluorescence spectrophotometer. DCFH2-DA diffuses readily through the cell membrane into the cytosolic space of the cell where it is hydrolyzed by intracellular esterases into the non-permeable DCFH2 product. DCFH2 oxidation by intracellular ROS (mainly H2O2, HO·, ROO·, NO· and ONOO) results in the production of intracellular fluorescent DCF, whose concentration is directly proportional to the levels of ROS in the cell. […] All the experiments were repeated at least 3 times. Data analysis was carried out with GraphPad Prism 6 for graphical representation and statistical processing (1-way ANOVA test).

[2] = tested on: H1299, lung adenocarcinoma cells; assay: Cell proliferation, crystal violet method; format: cell-based, human; conditions: spectrophotometer, read-out: IC50 anti-proliferative effect, LC (H1299)
Experimental: The compound according to the invention, and in particular the synthetic quercetin derivatives described and illustrated herein were investigated in vitro by using human tumour cells and assessing their impact on the tumour proliferative capacity, with regard to the tumours described above. In particular, the following human tumour cell lines were assessed experimentally: 1) HCT116, colon adenocarcinoma cells; 2) H1299, lung adenocarcinoma cells; 3) A375, melanoma cells, and 4) A431, squamous skin cell carcinoma; 5) 786-0, renal carcinoma cells; 6) PC3, prostate carcinoma cells; 7) BT549, mammary carcinoma cells; 8) CAL27, tongue carcinoma cells (belonging to the head-and-neck carcinomas); 9) HepG2, hepatocellular carcinoma cells; 10) PANC-1, pancreas carcinoma cells; 11) T24, bladder carcinoma cells; 12) OVCAR-3, ovarian carcinoma cells. In addition, a normal human cell line, WS1 (skin fibroblasts) was also treated with the novel synthetic compounds.
Cell proliferation was quantified by the crystal violet method with a spectrophotometer. In short, after acquiring serial images (0, 24 and 48 hrs) with the EVOS XL Cell Imaging System microscope (Thermo Fisher Scientific), the cells imaged at 48 hrs were fixed with paraformaldehyde (4%) and stained with Crystal Violet (1%). Then, the specific absorbance (λ=590 nm) at 48 hrs was measured with a spectrophotometer (Infinite®200 PRO, Tecan). Data analysis was carried out by using ad-hoc Excel files for graphical representation and statistical processing (t-test). Moreover, the results obtained with Crystal Violet were confirmed by using another cell proliferation assessment method based on the real time cellular analyzer XCELLigence RTCA DP (ACEA Biosciences, Inc.). This tool allows cell growth to be monitored from electrical impedance-derived quantitative values (the so-called Cell Index) measured by tiny electrodes located at the base of the culture wells. Proliferation is monitored for several days (5-7) by setting a Cell Index per minute measure on the instrument. The data are analysed by processing various parameters calculated by the dedicated software, such as the cell duplication time, the slope and the Max Cell Index.
Cell proliferation was quantitated spectrophotometrically by the crystal violet method.

[3] = tested on: normal cells (human skin fibroblasts, WS1); assay: Apoptosis, acridine orange/ethidium bromide method; format: cell-based; conditions: 2 hrs; Compound 2 40 μM, 5 40 μM, 4 40 μM, 3 60 μM, 1 80 μM; FIG. 18
[4] = tested on: human tongue carcinoma cells (Cal27); assay: Cell proliferation, crystal violet method; format: cell-based; conditions: for Cal27 tumour growth vs vehicle control: 80 μM, FIG. 7a, 7b; for IC50: crystal violet, spectrophotometer, read-out: IC50 anti-proliferative effect, HNC - (Cal27)
[5] = tested on: human hepatocellular carcinoma cells (HepG2); assay: Cell proliferation, crystal violet method; format: cell-based; conditions: for HepG2 tumour growth vs vehicle control: 80 μM, FIG. 8a, 8b; for IC50: crystal violet, spectrophotometer, read-out: IC50 anti-proliferative effect, HCC - HepG2
[6] = tested on: human colon carcinoma cells (HCT116); assay: Cell cycle progression, propidium iodide method, cytofluorimeter; format: cell-based; conditions: for halt of HCT116 tumour cells in S of the cell cycle: 24 hrs, at the respective anti-proliferative IC50s, FIG. 20
Experimental: (§1) Progression through the tumour cell cycle was assessed by the propidium iodide method and quantification of the cell DNA content with a cytofluorimeter. Briefly, after treatment (in duplicate) with the test compounds (24 hrs), the tumour cells were washed (with PBS), detached with trypsin-EDTA and pelleted by centrifugation (125 g for 6 min). The cells were then fixed in ethanol (70%) and stored in the freezer (−20° C.) for 1-3 days. After further washing (PBS) and treatment with RNAse (50 ug/ml), the cells were contacted (on ice in the dark; 30 min) with propidium iodide (50 μg/ml). FL2 and FL3 cytofluorimeter readings analysed approximately 50,000 cells (1 μl/second) per sample. Statistical analysis and graphical representation were performed by using t-tests and preset Excel property files.

[7] = tested on: human melanoma cells (A375); assay: as above; format: cell-based; conditions: for halt of A375 tumour cells in S and/or G2 of the cell cycle: 24 hrs, at the respective anti-proliferative IC50s, FIG. 19
Experimental: as §1

[8] = tested on: human skin fibroblasts (WS1); assay: Cell proliferation of normal cells, crystal violet method; format: cell-based; conditions: at the indicated concentrations (not given); FIG. 17
Experimental: The compound according to the invention, and in particular the synthetic quercetin derivatives described and illustrated herein were investigated in vitro by using human tumour cells and assessing their impact on the tumour proliferative capacity, with regard to the tumours described above. In particular, the following human tumour cell lines were assessed experimentally: 1) HCT116, colon adenocarcinoma cells; 2) H1299, lung adenocarcinoma cells; 3) A375, melanoma cells, and 4) A431, squamous skin cell carcinoma; 5) 786-0, renal carcinoma cells; 6) PC3, prostate carcinoma cells; 7) BT549, mammary carcinoma cells; 8) CAL27, tongue carcinoma cells (belonging to the head-and-neck carcinomas); 9) HepG2, hepatocellular carcinoma cells; 10) PANC-1, pancreas carcinoma cells; 11) T24, bladder carcinoma cells; 12) OVCAR-3, ovarian carcinoma cells. In addition, a normal human cell line, WS1 (skin fibroblasts) was also treated with the novel synthetic compounds. Cell proliferation was quantified by the crystal violet method with a spectrophotometer. In short, after acquiring serial images (0, 24 and 48 hrs) with the EVOS XL Cell Imaging System microscope (Thermo Fisher Scientific), the cells imaged at 48 hrs were fixed with paraformaldehyde (4%) and stained with Crystal Violet (1%). Then, the specific absorbance (λ=590 nm) at 48 hrs was measured with a spectrophotometer (Infinite®200 PRO, Tecan). Data analysis was carried out by using ad-hoc Excel files for graphical representation and statistical processing (t-test). […] This tool allows cell growth to be monitored from electrical impedance-derived quantitative values (the so-called Cell Index) measured by tiny electrodes located at the base of the culture wells. Proliferation is monitored for several days (5-7) by setting a Cell Index per minute measure on the instrument. The data are analysed by processing various parameters calculated by the dedicated software, such as the cell duplication time, the slope and the Max Cell Index.

[9] = tested on: human ovarian carcinoma cells (OVCAR-3); assay: Cell proliferation, crystal violet method; format: cell-based

Substance | intracellular ROS levels in HCT116 cells [1] | intracellular ROS levels in HCT116 cells after pretreatment with NAC ([1]; pretreatment with N-Acetyl-L-Cysteine 10 mM, FIG. 22 right) | IC50 [2] [µM] | induction of apoptosis in normal cells WS1 [3] | Cal27 tumour growth vs vehicle control [4] | IC50 [4] [µM] | HepG2 tumour growth vs vehicle control [5] | IC50 [5] [µM] | halt of HCT116 tumour cells in S of the cell cycle [6] | effect on the HCT116 cell cycle in presence of ROS scavenger NAC ([6]; Compound at its anti-proliferative IC50 + N-Acetyl Cysteine 10 mM, FIG. 21 left) | halt of A375 tumour cells in S and/or G2 of the cell cycle [7] | effect on the A375 cell cycle in presence of ROS scavenger NAC ([7]; Compound at its anti-proliferative IC50 + N-Acetyl Cysteine 10 mM, FIG. 21 right) | proliferation of normal human skin fibroblasts (WS1) vs vehicle control [8] | OVCAR-3 cell growth vs vehicle control ([9]; 60 μM, FIG. 11a, 11b) | IC50 ([9]; crystal violet, spectrophotometer, read-out: IC50 anti-proliferative effect, OCC - (OVCAR)) [µM]
2-(3,4-Dihydroxyphenyl)-3-ethoxy-5,7-dihydroxy-4H-chromen-4-one [Compound 1] | significantly raise | blocked | 100 | not in normal cells | significantly inhibit | 15.6 | significantly inhibit | 144 | significantly halt | partly mediated by ROS | significantly halt | partly mediated by ROS |  |  | 
2-(3,4-Dihydroxyphenyl)-3-hexadecyloxy-5,7-dihydroxy-4H-chromen-4-one [Compound 3] | significantly raise |  | 34.9 | not in normal cells | significantly inhibit | 36.7 | significantly inhibit; also recorded: superior to that of quercetin | 50.2 | significantly halt |  | exception |  |  |  | 
2-(3,4-Dihydroxyphenyl)-3-hexyloxy-5,7-dihydroxy-4H-chromen-4-one [Compound 2] | significantly raise |  | 50.7 | not in normal cells | significantly inhibit | 63.2 | significantly inhibit | 265 |  |  | significantly halt |  | do not disrupt |  | 
2-(3,4-dihydroxyphenyl)-5,7-dihydroxy-4-oxo-4H-chromen-3-yl acetate [Compound 4] |  |  | 15.9 | not in normal cells | significantly inhibit | 22.9 | significantly inhibit; also recorded: superior to that of quercetin | 54.4 | significantly halt |  | significantly halt |  |  |  | 
2-(3,4-dihydroxyphenyl)-5,7-dihydroxy-4-oxo-4H-chromen-3-yl palmitate [Compound 5] |  |  | 50.5 | not in normal cells | significantly inhibit; also recorded: superior to that of quercetin | 19.7 | significantly inhibit; also recorded: superior to that of quercetin | 106 |  |  | significantly halt |  |  | significantly inhibit | 79.2
